Laboratory results as given in patent publication US5658885A, “Amidino and guanidino substituted boronic acid inhibitors of trypsin-like enzymes” (The DuPont Merck Pharmaceutical Company, priority 1994, dated 1997).
Structures can show the parent of a compound that is named as a salt.

Key:
human factor Xa = molecular target: T1, human factor Xa (Homo sapiens, UniProt P00742); assay: Inhibition of Factor Xa hydrolysis of chromogenic substrate S2222 (Ki); type: biochemical; settings: S2222, pH 7.5
T1 construct: 0.2-0.5 nM human thrombin or human factor Xa; purchased Enzyme Research Laboratories, South Bend, Ind
Description: (§1) The effectiveness of compounds of the present invention as inhibitors of blood coagulation proteases was determined using purified human proteases and synthetic substrates following procedures similar to those described in Kettner et al. (1990).
(§2) For these assays, the rate of enzymatic (thrombin, Factor Xa, and Factor VIIa) hydrolysis of chromogenic substrates (S2238 (H-D-Phe-Pip-Arg-pNA), S2222, and S2288, respectively; Kabi Pharmacia, Franklin, Ohio) was measured both in the absence and presence of compounds of the present invention. […] A decrease in the rate of absorbance change at 405 nm in the presence of inhibitor is indicative of enzyme inhibition. The results of this assay are expressed as inhibitory constant, Ki.
(§3) Thrombin and Xa determinations were made in 0.10M sodium phosphate buffer, pH 7.5, containing 0.20M NaCl, and 0.5% PEG 8000. VIIa determinations were made in 0.05M tris buffer, pH 7.6, containing 0.10M NaCl, 4 mM CaCl2, and 0.1% bovine serum albumin.
(§4) Reactions were allowed to go for 30 minutes and the velocities (rate of absorbance change vs time) were measured in the time frame of 25-30 minutes. The following relationship was used to calculate Ki values. [formula] where: vo is the velocity of the control in the absence of inhibitor;
(§5) vs is the velocity in the presence of inhibitor;
(§6) I is the concentration of inhibitor;
(§7) Ki is the dissociation constant of the enzyme: inhibitor complex;
(§8) S is the concentration of substrate;
(§9) Km is the Michaelis constant.

human thrombin = molecular target: T2, human thrombin (Homo sapiens, UniProt P00734); assay: Inhibition of thrombin hydrolysis of chromogenic substrate S2238 (Ki); type: biochemical; settings: S2238, pH 7.5
T2 construct: 0.2-0.5 nM human thrombin or human factor Xa; purchased Enzyme Research Laboratories, South Bend, Ind
Description: as §1, §2, §3, §4, §5, §6, §7, §8, §9

human factor VIIa = molecular target: T3, human factor VIIa (Homo sapiens, UniProt P08709); assay: Inhibition of Factor VIIa hydrolysis of chromogenic substrate S2288 (Ki); type: biochemical; settings: S2288, pH 7.6
T3 construct: 50 nM human factor VIIa (BiosPacific, Emeryville, Calif.); purchased BiosPacific, Emeryville, Calif
T3 sequence (P08709 213-466 limits assumed): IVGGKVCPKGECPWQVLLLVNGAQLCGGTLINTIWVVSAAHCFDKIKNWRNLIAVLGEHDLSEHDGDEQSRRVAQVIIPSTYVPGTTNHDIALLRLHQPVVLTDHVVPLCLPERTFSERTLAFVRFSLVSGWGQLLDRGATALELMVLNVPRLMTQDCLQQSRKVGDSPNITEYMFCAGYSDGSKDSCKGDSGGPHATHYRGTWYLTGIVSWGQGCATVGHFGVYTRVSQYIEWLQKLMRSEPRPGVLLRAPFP
T3 sequence (P08709 61-212 limits assumed): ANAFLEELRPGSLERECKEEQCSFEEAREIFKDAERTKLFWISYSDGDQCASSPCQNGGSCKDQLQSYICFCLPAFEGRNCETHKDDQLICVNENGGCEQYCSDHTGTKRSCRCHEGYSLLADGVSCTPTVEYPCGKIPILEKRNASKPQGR
Description: as §1, §2, §3, §4, §5, §6, §7, §8, §9

[1] = tested on: activated partial thromboplastin time; assay: Anticoagulant effect in vivo: prolongation of activated partial thromboplastin time of blood samples after dosing; set-up: species or system conscious dogs or anesthetized rats; settings: 0.5 to 10 mg/kg, dogs or rats
Description: Arterial or venous blood was withdrawn by syringe and mixed with 1/10 volume 3.2% sodium citrate. Plasma was obtained after centrifugation and a standard clinical activated partial thromboplastin time (APTT reagent, Sigma Chemical Co., St. Louis, Mo.) determined at 37° C. in a fibrometer.

T1 sequence (P00742 235-488 limits assumed): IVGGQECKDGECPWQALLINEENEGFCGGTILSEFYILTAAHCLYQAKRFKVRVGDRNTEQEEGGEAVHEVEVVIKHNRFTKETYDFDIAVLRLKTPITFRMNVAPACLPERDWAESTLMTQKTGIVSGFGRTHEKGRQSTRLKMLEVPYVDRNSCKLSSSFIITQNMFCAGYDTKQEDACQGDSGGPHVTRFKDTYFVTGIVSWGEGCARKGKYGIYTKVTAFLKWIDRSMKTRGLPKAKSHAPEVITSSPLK
T1 sequence (P00742 41-179 limits assumed): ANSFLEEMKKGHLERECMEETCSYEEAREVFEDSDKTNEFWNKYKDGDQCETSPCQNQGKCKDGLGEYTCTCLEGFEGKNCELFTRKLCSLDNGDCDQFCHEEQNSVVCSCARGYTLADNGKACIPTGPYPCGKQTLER

Molecule | Ki (human factor Xa) | Ki (human thrombin) | Ki (human factor VIIa) | anticoagulant response (at least doubling of activated partial thromboplastin time vs. pre-dose) ([1]; i.v. dosing) | anticoagulant response (at least doubling of activated partial thromboplastin time vs. pre-dose) ([1]; oral dosing)
CN(C)C(Cc1ccccc1)C(=O)N1CCCC1C(=O)NC(Cc1cccc(C#N)c1)B(O)O (single isomer, unassigned; isomer i) [Example 20, N,N-(CH3)2 --(D)Phe--Pro--boroPhe--(m-CN)--OH.HCl (ISOMER I)] | < 500 nM | < 500 nM | – | – | –
CC(=O)N[C@H](Cc1ccccc1)C(=O)N1CCC[C@H]1C(=O)N[C@@H](Cc1cccc(C#N)c1)B(O)O [Example 23, Ac--(D)Phe--Pro--boroPhe--(m-CN)--OH.HCl] | < 50000 nM | < 500 nM | < 500 nM | – | –
CNC(Cc1ccccc1)C(=O)N1CCCC1C(=O)NC(Cc1cccc(C#N)c1)B1OC2CC3CC(C3(C)C)C2(C)O1 (stereo not shown) [Example 25, N--CH3 --(D)Phe--Pro--boroPhe(m-CN)--C10 H16.HCl] | < 500 nM | < 500 nM | – | – | –
CC1(C)C2CC3OB(C(Cc4cccc(C#N)c4)NC(=O)C4CCCN4C(=O)C(N)Cc4cccnc4)OC3(C)C1C2 (stereo not shown) [Example 30, H--(D)3-Pyridylalanine-Pro--boroPhe(m-CN)--C10 H16.HCl] | < 500 nM | < 500 nM | – | – | –
CC1(C)C2CC3OB(C(Cc4cccc(C#N)c4)NC(=O)C4CCCN4C(=O)[C@@H](Cc4cccnc4)NS(C)(=O)=O)OC3(C)C1C2 (stereo partly shown) [Example 32, Ms--(D)3-Pyridylalanine-Pro--boroPhe(m-CN)--C10 H16] | < 500 nM | < 500 nM | – | – | –
CC(C)(C)OC(=O)NC(Cc1cccs1)C(=O)N1CCCC1C(=O)NC(Cc1cccc(C#N)c1)B1OC2CC3CC(C3(C)C)C2(C)O1 (stereo not shown) [Example 36, Boc--(D)2-Thienylalanine-Pro--boroPhe(m-CN)--C10 H16] | < 500 nM | < 500 nM | < 500 nM | – | –
CC1(C)C2CC3OB(C(Cc4cccc(C#N)c4)NC(=O)C4CCCN4C(=O)C(Cc4cccs4)NS(C)(=O)=O)OC3(C)C1C2 (stereo not shown) [Example 40, Ms--(D)2-Thienylalanine-Pro--boroPhe(m-CN)--C10 H16] | < 500 nM | < 500 nM | < 500 nM | – | –
CS(=O)(=O)N[C@H](Cc1ccccc1)C(=O)N1CCC[C@H]1C(=O)N[C@@H](CCCNC=N)B(O)O.Cl [Example 57, Ms--(D)Phe--Pro--boroOrn(CH=NH)--OH.HCl] | – | < 500 nM | – | effective | effective
CCCCS(=O)(=O)NC(Cc1ccccc1)C(=O)N1CCCC1C(=O)NC(CCCNC=N)B(O)O.Cl (stereo not shown) [Example 66, CH3 (CH2)3 SO2 --(D)Phe--Pro--boroOrn(CH=NH)--OH.HCl] | – | < 500 nM | – | – | effective
Cl.N=CNCCCC(NC(=O)C1CCCN1C(=O)C(Cc1ccccc1)NC(=O)OCc1ccccc1)B(O)O (stereo not shown) [Example 77, Z--(D)Phe--Pro--boroOrn(CH=NH)--OH.HCl] | – | – | – | effective | –
CC1(C)C2CC3OB(C(CCCNC(N)=O)NC(=O)C4CCCN4C(=O)C(Cc4ccccc4)NS(=O)(=O)Cc4ccccc4)OC3(C)C1C2 (stereo not shown) [Example 110, PhCH2 SO2 --(D)Phe--Pro--boroOrn(CONH2)--C10 H16] | < 50000 nM | < 500 nM | – | – | –
CC(=O)N[C@H](Cc1ccccc1)C(=O)N1CCCC1C(=O)NC(CC1CCC(N)CC1)B1OC2CC3CC(C3(C)C)C2(C)O1 (stereo partly shown) [Example 124] | < 50000 nM | < 500 nM | – | – | –
Boc--(D)Phe--Pro--boroGly[(CH2)3 --ONH2 ]--OH.HCl [Example 102] | < 50000 nM | < 500 nM | < 500 nM | – | –
Hydrocinnamoyl-Pro--boroIrg(CH2 CH3)--OH.HBr [Example 53] | – | < 50000 nM | – | – | –
Hydrocinnamoyl-Pro--boroIrg(CH2 CH=CH2)--OH.HBr [Example 49] | – | > 500000 nM | – | – | –
Ms--(D)Phe--Pro--boroArg(CH3)--OH.HCl [Example 56] | – | < 500 nM | – | – | effective
Ms--(D)Phe--Pro--boroPhe(m-CN)--OH.HCl [Example 24] | < 500 nM | < 500 nM | – | – | –
N-alpha-[boroOrn(CH=NH)--OH]-(2-trans benzylcarboxamido)-cyclopentane-1-carboxamide.HCl [Example 71] | – | < 500 nM | – | – | –
PhCH2 SO2 --(D)Phe--Pro--boroArg(CH3)--OH.HCl [Example 61] | – | < 500 nM | – | – | –
PhCH2 SO2 --(D)Phe--Pro--boroOrn(CH=NH)--OH.HCl [Example 62] | – | < 500 nM | – | – | –

Continued, in another order:

Ki (human factor Xa) | Ki (human thrombin) | Ki (human factor VIIa) | Molecule | anticoagulant response (at least doubling of activated partial thromboplastin time vs. pre-dose) ([1]; i.v. dosing) | anticoagulant response (at least doubling of activated partial thromboplastin time vs. pre-dose) ([1]; oral dosing)
< 500 nM | < 500 nM | – | CC(C)(C)OC(=O)N[C@H](Cc1cccnc1)C(=O)N1CCCC1C(=O)NC(Cc1cccc(C#N)c1)B1OC2CC3CC(C3(C)C)C2(C)O1 (stereo partly shown) [Example 28, Boc--(D)3-Pyridylalanine-Pro--boroPhe--(m-CN)-C10 H16] | – | –
< 500 nM | < 500 nM | < 500 nM | CC(C)(C)OC(=O)N[C@H](Cc1ccccn1)C(=O)N1CCCC1C(=O)NC(Cc1cccc(C#N)c1)B1OC2CC3CC(C3(C)C)C2(C)O1 (stereo partly shown) [Example 34, Boc--(D)2-Pyridylalanine-Pro--boroPhe(m-CN)--C10 H16] | – | –
< 50000 nM | < 500 nM | < 500 nM | CC1(C)C2CC3OB(C(Cc4cccc(C#N)c4)NC(=O)[C@@H]4CCCN4C(=O)[C@H](N)Cc4ccccn4)OC3(C)C1C2 (stereo partly shown) [Example 37, H--(D)2-Pyridylalanine-Pro--boroPhe(m-CN)--C10 H16.HCl] | – | –
< 50000 nM | < 500 nM | < 500 nM | CC1(C)C2CC3OB(C(Cc4cccc(C#N)c4)NC(=O)[C@@H]4CCCN4C(=O)[C@H](N)Cc4cccs4)OC3(C)C1C2 (stereo partly shown) [Example 38, H--(D)2-Thienylalanine-Pro--boroPhe(m-CN)--C10 H16.HCl] | – | –
< 500 nM | < 500 nM | < 500 nM | CC1(C)C2CC3OB(C(Cc4cccc(C#N)c4)NC(=O)[C@@H]4CCCN4C(=O)[C@@H](Cc4ccccn4)NS(C)(=O)=O)OC3(C)C1C2 (stereo partly shown) [Example 39, Ms--(D)2-Pyridylalanine-Pro--boroPhe(m-CN)--C10 H16] | – | –
< 50000 nM | < 500 nM | < 500 nM | N=CNCCCC(NC(=O)C1CCCN1C(=O)CCc1ccccc1)B(O)O (stereo not shown) [Example 48] | – | –
– | < 500 nM | – | CS(=O)(=O)N[C@H](Cc1ccc(F)cc1)C(=O)N1CCC[C@H]1C(=O)N[C@@H](CCCNC=N)B(O)O.Cl [Example 60, Ms--(D)Phe(4-fluoro)-Pro--boroOrn(CH=NH)--OH.HCl] | – | effective
< 50000 nM | < 500 nM | < 50000 nM | CC(=O)NCCCCC(NC(=O)C1CCCN1C(=O)CCc1ccccc1)B1OC2CC3CC(C3(C)C)C2(C)O1 (stereo not shown) [Example 136, Hydrocinnamoyl-ProboroGly[(CH2)4 --NH--Acetyl]C10 H16] | – | –
– | < 500 nM | < 50000 nM | COCCCC(NC(=O)C1CCCN1C(=O)C(Cc1ccccc1)NCC(=O)O)B1OC2CC3CC(C3(C)C)C2(C)O1 (stereo not shown) [Example 140, HO2 CCH2 --(D)--Phe--Pro--boroGly[(CH2)3 --OCH3]--C10 H16] | – | –
< 50000 nM | < 500 nM | < 50000 nM | COCCCC(NC(=O)[C@@H]1CCCN1C(=O)[C@@H](Cc1ccccc1)N(C)C)B1OC2CC3CC(C3(C)C)C2(C)O1 (stereo partly shown) [Example 141, N,N-dimethyl-(D)--Phe--Pro--boroGly[(CH2)3 --OCH3]--C10 H16] | – | –
< 500 nM | < 500 nM | – | Boc--(D)Thiazolylalanine-Pro--boroPhe(m-CN)--C10 H16 [Example 27] | – | –
– | < 500 nM | – | HOOCCH2 --(D)Phe--Pro--boroOrn[C(NCN)NHCH3 ]--C10 H16.HCl [Example 106] | – | –
– | < 500 nM | – | Hydrocinnamoyl-Pro--boroArg(CH3)--OH.HCl [Example 55] | – | –
– | < 50000 nM | – | Hydrocinnamoyl-Pro--boroIrg(CH3)--OH.HBr [Example 50] | – | –
– | < 500 nM | – | PhSO2 --(D)Phe--Pro--boroArg(CH3)--OH.HCl [Example 58] | – | –
– | < 500 nM | – | PhSO2 --(D)Phe--Pro--boroOrn(CH=NH)--OH.HCl [Example 59] | – | –
